Assay results as given in US20240415845A1, “Compositions of Iboga Alkaloids and Methods of Treatment” (priority 2022, published 2024).
“Also recorded” adds a separate entry of the source.

Experiments:
Format in all cases: in vivo, human
[1] = system: special operations veterans with combat and/or blast exposure; experiment: MRI-based predicted brain age (machine learning model); details: for brain age estimate: baseline 40.89 years; for Brain age, Cohen's d / Brain age, Mean Difference: N 24
Text: In another aspect, a method for slowing or reversing brain aging in a subject is provided. In an embodiment, the subject is a person a healthy individual or is a person with TBI or with TBI and PTSD or a person at risk of one or both of TBI and PTSD. The method comprises treating the subject with ibogaine, as described herein. Neuroimaging data can be used to predict chronological age in healthy individuals, using machine learning. Neuroimaging-derived age predictions have been explored in the context of different brain diseases (Cole, et al., NeuroImage, 163:115-124 (2017): Cole, et al., Trends in Neurosciences, 40(12):681 (2017))). By training models on healthy individuals, brain-based predictions of age can be made in independent clinical samples. If ‘brain-predicted age’ is greater than an individual's chronological age, this is thought to reflect some aberrant accumulation of age-related changes to the brain (Id.). […] A predictive model of normal ageing defined using machine learning in healthy individuals, based on magnetic resonance imaging-derived estimates of gray matter and white matter (Id.) was applied to the MRI images from the subjects enrolled in the study of Example 1. […] There was a significant reversal of brain age from baseline to one month after treatment. The mean decrease in brain age was 1.3 years (corrected p=0.03).
At baseline, the brain age estimate for the 24 subjects was 40.89 years. […] The average decrease in brain age from baseline one month after treatment was 1.4 years.

[2] = system: special operations veterans with combat and/or blast exposure; experiment: Safety monitoring during and after treatment (adverse events, QTc by ECG)
Experimental: With subjects in the fasting state, an intravenous infusion of 1 gram of magnesium sulfate was administered 1-2 hours prior to treatment. […] Medical staff (MD, RN, or EMT) were onsite at a ratio of at least 1 staff per 2 patients throughout treatment for monitoring and management, but no specific coaching or psychological support was provided during treatment.

[3] = system: special operations veterans with combat and/or blast exposure; experiment: Moral Injury Symptom Scale (MISS)
Text: A Moral Injury Symptom Scale (MISS) was also used to assess the subjects before and one month after treatment. Moral injury is when one acts in a manner or witnesses behaviors that go against an individual's values and moral beliefs. This may include betrayal by leadership or peers with adverse outcomes. Symptoms include guilt, remorse, shame, disgust, anger, inability to forgive oneself, engaging in self-sabotaging behaviors, such as feeling undeserving, affecting work and relationships, and questioning spirituality. The MISS is a multidimensional measure to assess the severity of moral injury symptoms. Possible score range is 45-450, with higher scores indicating more severe moral injury (Koenig et al., J. Relig Health, 57:249-265 (2018)).

[4] = system: special operations veterans with combat and/or blast exposure; experiment: Structural MRI (T1w, FreeSurfer): brain volume and cortical thickness
Experimental: Structural imaging of the brain was also conducted on some of the subjects of Example 1. Gray matter constitutes about 40% of the brain and white matter constitutes about 60% of the brain. Gray matter contains most of the brain's neuronal cell nodes, it is fully developed once a person reaches their 20's and interprets sensor information from various parts of the body. White matter is made up of bundles which connect various gray matter areas, it develops throughout the 20's and peaks in middle age. Typical metrics analyzed in anatomical (T1-weighted, “T1w”) imaging include volume and/or shape of nuclei (e.g. caudate), volume and/or shape of ventricles of the brain, and cortical thickness (mm). These metrics can be used to study normal and abnormal neuroanatomy and are primarily used to quantify gray matter. A tool called FreeSurfer was applied to images for a T1w structural analysis (volume, cortical thickness) to adjust for bias, remove non-brain matter, segments by tissue, parcels the brain into standardized regions, and provides measurements of those regions. FreeSurfer measurements of whole brain volume, volume by tissue (gray, white, CSF), estimated intracranial volume (ICV), subcortical gray matter volume, cortical volume by region were done. […] In particular, analysis was done to determine if there was any loss in gray matter volume or cortical thickness, whether there was a loss in white matter volume or an increase in presence of white matter […]. Results are summarized in Table 3 and shown in FIGS. 17A-17B, and FIGS. 18A-18B.
The fMRI images were also inspected to determine the difference in volume in regional areas of the brain from baseline to one month after treatment. FIG. 18A is a bar graph showing the effect size of a change in volume in 47 brain regions indicated along the x-axis. […] The fMRI images were also inspected for whole brain thickness at baseline and one month after treatment. […] FIG. 18B is a bar graph showing the effect size of a cortical thickness change for the brain regions indicated along the x-axis, from baseline to one month after treatment. […] The right and left parahippocampal gyrus are involved in visuospatial processing, including scene perception, navigation, and emotional contextualization. The left orbitofrontal gyrus is involved in impulse control and reward valuation. The left insular cortex is associated with both the affective-perceptual and cognitive-evaluative forms of empathy, as well as awareness of hunger, pain and fatigue. The left entorhinal cortex is a widespread network hub for memory, navigation, and perception of time.

[5] = contrast 1 wk post − 1 mo. post
[6] = contrast immediate post (~1 wk) − baseline
[7] = one month after treatment, 24 subjects
[8] = one month after treatment vs baseline
[9] = baseline to one month after treatment

CCC1CC2CC3c4[nH]c5ccc(OC)cc5c4CCN(C2)C13 (centres unmarked) [ibogaine, Ibogaine]
Brain age, contrast Estimate ([1]; Baseline & 1 wk. vs 1 mo., weights .5-.5-1): 1.220 years | Brain age, contrast Estimate ([1]; Baseline vs. 1 wk and 1 mo., weights 1-.5-.5): 0.892 years | brain age estimate ([1]; about one week after treatment, 24 subjects): 40.52 years | mean decrease in predicted brain age ([1]; baseline to one month after treatment, corrected p=0.03 (FIG. 19A)): 1.3 years | Brain age, Cohen's d ([1]; contrast 1-mo. post − baseline): −0.6137 | Brain age, Mean Difference ([1]; contrast 1-mo. post − baseline): −1.408 Years | Brain age, Cohen's d [1, 5]: −0.4729 | Brain age, Mean Difference [1, 5]: −1.031 Years | Brain age, Cohen's d [1, 6]: −0.2114 | Brain age, Mean Difference [1, 6]: −0.3764 Years | average decrease in brain age from baseline [1, 7]: 1.4 years | brain age estimate [1, 7]: 39.48 years | estimated brain age compared to accelerated intermittent theta burst stimulation (aiTBS) ([1]; one-month post treatment (FIG. 19D)): reducing in estimated brain age | participants with transient cerebellar signs such as mild ataxia and intention tremor ([2]; 30 participants): All participants | unexpected or serious treatment-emergent side effects / adverse events ([2]; 30 participants, oral ibogaine with IV magnesium sulfate): no unexpected or serious treatment-emergent side effects; also recorded: no unexpected or serious adverse events | prolongation of QTc ([2]; continuous 5-lead ECG for 12-16 hours following administration): no instances of a concerning prolongation of QTc | time to resolution of transient cerebellar signs ([2]; human, in vivo, oral): ≤ 24 h | participants treated for insomnia ([2]; while experiencing the oneirogenic effects, 1 participant): 3% | participants treated for hypertension ([2]; while experiencing the oneirogenic effects, 2 participants): 7% | participants treated for anxiety ([2]; while experiencing the oneirogenic effects, 3 participants): 10% | participants treated for nausea ([2]; while experiencing the oneirogenic effects, 7 participants): 23% | participants treated for headache ([2]; while experiencing the oneirogenic effects, 12 participants): 40% | subjects showing a reduction in moral injury score ([3]; FIG. 6B): 88% | MISS effect size [3, 8]: 1.14 | average moral injury symptoms score (MISS) ([3]; one month after treatment, baseline about 220, score range 45-450): about 140 | regional volume change in cerebral white matter (left) and left ventral DC [4, 9]: Increases in volume | regional volume change in posterior corpus callosum and left choroid plexus [4, 9]: Decreases in volume | White matter hypointensities (corrected for cerebral white matter), change ([4]; baseline vs one month post treatment, 17 subjects, two-tailed p = 0.0789): Two-tailed: no significant differences | Subcortical Gray Matter volume, change ([4]; baseline vs one month post treatment, 17 subjects, two-tailed p = 0.0949): Two-tailed: no significant differences | Total Gray Matter volume, change ([4]; baseline vs one month post treatment, 17 subjects, two-tailed p = 0.4755): Two-tailed: no significant differences | Cortical Gray Matter volume, change ([4]; baseline vs one month post treatment, 17 subjects, two-tailed p = 0.4847): Two-tailed: no significant differences | damage to the brain by inspection of brain volume and thickness ([4]; one month after treatment): no apparent damage to the brain | right hemisphere mean cortical thickness, change [4, 8]: no significant difference | Left hemisphere mean cortical thickness, change ([4]; one month after treatment vs baseline, two-tailed p=0.7146): no significant difference | cortical thickness change in left entorhinal cortex, left-lateral-orbitofrontal pole, parahippocampal gyrus (bilaterally), left insular cortex, right-pars triangularis ([4]; one-month after treatment): Increases in cortical thickness
